ChEMBL document CHEMBL1201862, “PubChem BioAssay data set” (2004)
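Step 1: Grow cells in 96-well plates. Step 2: Expose to compound for 48 hours at 5 concentrations. Step 3: Interpolate endpoints linearly; if unreached, use highest concentration. Abbreviation: GI50, concentration required for 50% inhibition of growth.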 Active and inactive are the calls of the source. No stated cut-off is given here; in the data, active = GI50 up to about 1.1 µM and inactive = higher.

How the values were obtained:
Assay in all cases: inhibition of tumour cell growth, NCI panel, 48 h
DLD-1 = system: DLD-1
SK-MEL-5 = system: SK-MEL-5
M14 = system: M14
LXFL 529 = system: LXFL 529
HL-60 = system: HL-60
Malme-3M = system: Malme-3M
UACC-257 = system: UACC-257
TK-10 = system: TK-10
SK-MEL-2 = system: SK-MEL-2
SNB-78 = system: SNB-78
SF-295 = system: SF-295
OVCAR-5 = system: OVCAR-5
SN12C = system: SN12C
KM-20L2 = system: KM-20L2
DMS-114 = system: DMS-114
SK-MEL-28 = system: SK-MEL-28
A498 = system: A498
SF-539 = system: SF-539
HCT-116 = system: HCT-116
HT-29 = system: HT-29
HCT-15 = system: HCT-15
IGROV-1 = system: IGROV-1
CCRF-CEM = system: CCRF-CEM
NCI-H226 = system: NCI-H226
CAKI-1 = system: CAKI-1
OVCAR-4 = system: OVCAR-4
M19-MEL = system: M19-MEL
UACC-62 = system: UACC-62
SNB-19 = system: SNB-19
MOLT-4 = system: MOLT-4
SW-620 = system: SW-620
786-0 = system: 786-0
OVCAR-8 = system: OVCAR-8
A549 = system: A549
SR = system: SR
HOP-18 = system: HOP-18
ACHN = system: ACHN
SF-268 = system: SF-268
HOP-92 = system: HOP-92
NCI-H522 = system: NCI-H522
EKVX = system: EKVX
DMS-273 = system: DMS-273
HOP-62 = system: HOP-62
LOX IMVI = system: LOX IMVI
UO-31 = system: UO-31
SK-OV-3 = system: SK-OV-3
SNB-75 = system: SNB-75
K562 = system: K562
HCC 2998 = system: HCC 2998
RXF 393 = system: RXF 393
U-251 = system: U-251
OVCAR-3 = system: OVCAR-3
NCI-H23 = system: NCI-H23
COLO 205 = system: COLO 205
NCI-H460 = system: NCI-H460
XF498 = system: XF498
RPMI-8226 = system: RPMI-8226
KM12 = system: KM12

CC1=C(C(=O)Nc2ccccc2)C(c2cccc3ccccc23)C(C(=O)Nc2ccccc2)=C(C)N1
GI50 (DLD-1): 28.2 µM (inactive)
GI50 (SK-MEL-5): 19.3 µM (inactive)
GI50 (M14): 17.7 µM (inactive)
GI50 (LXFL 529): 15.9 µM (inactive)
GI50 (HL-60): 17.1 µM (inactive)
GI50 (Malme-3M): 18.8 µM (inactive)
GI50 (UACC-257): 18.2 µM (inactive)
GI50 (TK-10): 31.5 µM (inactive)
GI50 (SK-MEL-2): 17 µM (inactive)
GI50 (SNB-78): 28.7 µM (inactive)
GI50 (SF-295): 17.5 µM (inactive)
GI50 (OVCAR-5): 23 µM (inactive)
GI50 (SN12C): 18 µM (inactive)
GI50 (KM-20L2): 19.3 µM (inactive)
GI50 (DMS-114): 24.9 µM (inactive)
GI50 (SK-MEL-28): 18 µM (inactive)
GI50 (A498): 24.1 µM (inactive)
GI50 (SF-539): 20.4 µM (inactive)
GI50 (HCT-116): 15.4 µM (inactive)
GI50 (HT-29): 18.8 µM (inactive)
GI50 (HCT-15): 16.2 µM
GI50 (IGROV-1): 25.6 µM (inactive)
GI50 (CCRF-CEM): 26.7 µM (inactive)
GI50 (NCI-H226): 1.74 µM (inactive)
GI50 (CAKI-1): 15.6 µM (inactive)
GI50 (OVCAR-4): > 10 µM (inactive)
GI50 (M19-MEL): 19 µM (inactive)
GI50 (UACC-62): 13.8 µM (inactive)
GI50 (SNB-19): 16.4 µM (inactive)
GI50 (MOLT-4): 0.767 µM (active)
GI50 (SW-620): 22.4 µM (inactive)
GI50 (786-0): 22.4 µM (inactive)
GI50 (OVCAR-8): 16.7 µM (inactive)
GI50 (A549): 28 µM (inactive)
GI50 (SR): 3.11 µM (inactive)
GI50 (HOP-18): 24 µM (inactive)
GI50 (ACHN): 24.2 µM (inactive)
GI50 (SF-268): 21.5 µM (inactive)
GI50 (HOP-92): 24 µM (inactive)
GI50 (NCI-H522): 16 µM (inactive)
GI50 (EKVX): 11.8 µM (inactive)
GI50 (DMS-273): 19.1 µM (inactive)
GI50 (HOP-62): 18.7 µM (inactive)
GI50 (LOX IMVI): 16.7 µM (inactive)
GI50 (UO-31): 21.6 µM (inactive)
GI50 (SK-OV-3): 17.1 µM (inactive)
GI50 (SNB-75): 15.6 µM (inactive)
GI50 (K562): 30.4 µM (inactive)
GI50 (HCC 2998): 20.4 µM (inactive)
GI50 (RXF 393): 14.4 µM (inactive)
GI50 (U-251): 16.5 µM (inactive)
GI50 (OVCAR-3): 12.8 µM (inactive)
GI50 (NCI-H23): 21.7 µM (inactive)
GI50 (COLO 205): 13.4 µM (inactive)

CCOc1ccc2c(c1)[n+]([O-])c(-c1ccccc1)c(N)[n+]2[O-]
GI50 (DLD-1): > 100 µM (inactive)
GI50 (SK-MEL-5): 24.3 µM (inactive)
GI50 (M14): 81.5 µM (inactive)
GI50 (LXFL 529): 46.6 µM (inactive)
GI50 (HL-60): 37 µM (inactive)
GI50 (Malme-3M): 66.7 µM (inactive)
GI50 (UACC-257): 41.5 µM (inactive)
GI50 (TK-10): > 100 µM (inactive)
GI50 (SK-MEL-2): > 100 µM (inactive)
GI50 (NCI-H460): 51.6 µM (inactive)
GI50 (SF-295): > 100 µM (inactive)
GI50 (OVCAR-5): > 100 µM (inactive)
GI50 (SN12C): > 100 µM (inactive)
GI50 (KM-20L2): 59 µM (inactive)
GI50 (XF498): > 100 µM (inactive)
GI50 (DMS-114): 34.9 µM (inactive)
GI50 (SK-MEL-28): 33.1 µM (inactive)
GI50 (A498): 82.6 µM (inactive)
GI50 (SF-539): 51.3 µM (inactive)
GI50 (HT-29): > 100 µM (inactive)
GI50 (HCT-15): 55.2 µM
GI50 (IGROV-1): 82.6 µM (inactive)
GI50 (CCRF-CEM): 50.7 µM (inactive)
GI50 (NCI-H226): > 100 µM (inactive)
GI50 (CAKI-1): 35.6 µM (inactive)
GI50 (OVCAR-4): > 100 µM (inactive)
GI50 (M19-MEL): 62.4 µM (inactive)
GI50 (UACC-62): 30.5 µM (inactive)
GI50 (SNB-19): > 100 µM (inactive)
GI50 (MOLT-4): 46.8 µM (inactive)
GI50 (SW-620): > 100 µM (inactive)
GI50 (786-0): > 100 µM (inactive)
GI50 (OVCAR-8): 78.5 µM (inactive)
GI50 (A549): > 100 µM (inactive)
GI50 (HOP-18): 53.6 µM (inactive)
GI50 (ACHN): 55.1 µM (inactive)
GI50 (SF-268): 36.6 µM (inactive)
GI50 (NCI-H522): 16.8 µM (inactive)
GI50 (EKVX): 89.1 µM (inactive)
GI50 (DMS-273): 77.1 µM (inactive)
GI50 (HOP-62): 71.9 µM (inactive)
GI50 (RPMI-8226): > 100 µM (inactive)
GI50 (LOX IMVI): > 100 µM (inactive)
GI50 (UO-31): 96.4 µM (inactive)
GI50 (SK-OV-3): > 100 µM (inactive)
GI50 (SNB-75): > 100 µM (inactive)
GI50 (K562): 45 µM (inactive)
GI50 (HCC 2998): 68.5 µM (inactive)
GI50 (U-251): 47.6 µM (inactive)
GI50 (OVCAR-3): 82.2 µM (inactive)
GI50 (NCI-H23): 29.9 µM (inactive)
GI50 (KM12): 97.3 µM (inactive)
GI50 (COLO 205): 30.5 µM (inactive)

COc1ccc(S(=O)(=O)NC(C)C(=O)O)cc1 (stereo not drawn)
GI50 (DLD-1): > 100 µM (inactive)
GI50 (SK-MEL-5): > 100 µM (inactive)
GI50 (M14): > 100 µM (inactive)
GI50 (LXFL 529): > 100 µM (inactive)
GI50 (HL-60): > 100 µM (inactive)
GI50 (Malme-3M): > 100 µM (inactive)
GI50 (UACC-257): > 100 µM (inactive)
GI50 (TK-10): > 100 µM (inactive)
GI50 (SK-MEL-2): > 100 µM (inactive)
GI50 (NCI-H460): > 100 µM (inactive)
GI50 (SF-295): > 100 µM (inactive)
GI50 (OVCAR-5): > 100 µM (inactive)
GI50 (SN12C): > 100 µM (inactive)
GI50 (KM-20L2): > 100 µM (inactive)
GI50 (XF498): 21.9 µM (inactive)
GI50 (SK-MEL-28): > 100 µM (inactive)
GI50 (A498): > 100 µM (inactive)
GI50 (SF-539): > 100 µM (inactive)
GI50 (HT-29): > 100 µM (inactive)
GI50 (HCT-15): > 100 µM
GI50 (IGROV-1): > 100 µM (inactive)
GI50 (CCRF-CEM): > 100 µM (inactive)
GI50 (CAKI-1): > 100 µM (inactive)
GI50 (OVCAR-4): > 100 µM (inactive)
GI50 (M19-MEL): > 100 µM (inactive)
GI50 (UACC-62): > 100 µM (inactive)
GI50 (SNB-19): > 100 µM (inactive)
GI50 (MOLT-4): > 100 µM (inactive)
GI50 (SW-620): > 100 µM (inactive)
GI50 (786-0): > 100 µM (inactive)
GI50 (OVCAR-8): > 100 µM (inactive)
GI50 (A549): > 100 µM (inactive)
GI50 (HOP-18): > 100 µM (inactive)
GI50 (ACHN): > 100 µM (inactive)
GI50 (SF-268): > 100 µM (inactive)
GI50 (HOP-92): > 100 µM (inactive)
GI50 (NCI-H522): > 100 µM (inactive)
GI50 (EKVX): > 100 µM (inactive)
GI50 (DMS-273): > 100 µM (inactive)
GI50 (RPMI-8226): > 100 µM (inactive)
GI50 (LOX IMVI): > 100 µM (inactive)
GI50 (UO-31): > 100 µM (inactive)
GI50 (SK-OV-3): > 100 µM (inactive)
GI50 (SNB-75): 70.5 µM (inactive)
GI50 (K562): > 100 µM (inactive)
GI50 (RXF 393): > 100 µM (inactive)
GI50 (U-251): > 100 µM (inactive)
GI50 (OVCAR-3): > 100 µM (inactive)
GI50 (NCI-H23): > 100 µM (inactive)
GI50 (KM12): > 100 µM (inactive)
GI50 (COLO 205): > 100 µM (inactive)
